This is an account of results in PMC4933954, “Navigation in bile acid chemical space: discovery of novel FXR and GPBAR1 ligands” (Scientific Reports, 2016).

For one data set, the target named is T1, human GPBAR1 (Homo sapiens, UniProt Q8TDU6).
T1 construct: expressed in transfected cells; host or cells: HEK-293T
T1 sequence (Q8TDU6 1-330): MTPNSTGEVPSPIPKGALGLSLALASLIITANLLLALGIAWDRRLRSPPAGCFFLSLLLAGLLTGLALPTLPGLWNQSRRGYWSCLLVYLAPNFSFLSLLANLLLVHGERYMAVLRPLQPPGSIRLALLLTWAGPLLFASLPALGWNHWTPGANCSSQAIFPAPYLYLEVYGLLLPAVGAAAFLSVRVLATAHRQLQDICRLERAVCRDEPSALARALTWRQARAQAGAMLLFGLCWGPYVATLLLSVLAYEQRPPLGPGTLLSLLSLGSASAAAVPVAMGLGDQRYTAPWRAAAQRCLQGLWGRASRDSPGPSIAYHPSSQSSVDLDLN
Description: GPBAR1 transactivation (cAMP responsive element luciferase reporter) in transfected HEK-293T cells. Type of data set: cell-based. Conditions: for EC50: HEK-293T cells transfected with GPBAR1, concentration-response, mean ± standard error. The source says: Luciferase activities were normalized with Renilla activities.
(In general: Reporter assays use an easily measured gene product as a stand-in for the process of interest.)

The target in data set [1] is T2, GST-fusion FXR-LBD / SRC-1 peptide (Homo sapiens, UniProt Q96RI1).
T2 construct: 10 nM of purified GST-tagged FXR-LBD protein
T2 sequence (Q96RI1 262-486 limits assumed): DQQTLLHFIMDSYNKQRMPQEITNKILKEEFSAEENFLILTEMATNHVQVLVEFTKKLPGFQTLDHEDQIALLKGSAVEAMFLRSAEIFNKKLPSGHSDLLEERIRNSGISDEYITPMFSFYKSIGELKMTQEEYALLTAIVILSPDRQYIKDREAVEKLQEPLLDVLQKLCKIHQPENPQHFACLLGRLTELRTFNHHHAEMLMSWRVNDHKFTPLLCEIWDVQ
T2 sequence (Q15788 676-700 partner limits assumed): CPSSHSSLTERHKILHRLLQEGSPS
Description: Alpha screen coactivator recruitment assay, direct interaction of FXR with SRC-1. Type of data set: biochemical. The note with it: ligands at 2 μM, effect of 6-ECDCA (3) settled as 100%. On the procedure: CDCA (1) and 6-ECDCA (3) were used as positive controls at 2 μM concentration and the effect of 6-ECDCA (3) was settled as 100%. […] Results are expressed as percentage of the effect of 3 arbitrarily settled as 100%. NT is referred to the experiment in absence of ligand. […] (B,C) Real-time PCR analysis of mRNA expression on FXR target genes BSEP (B), and OSTα (C) in HepG2 cells primed with 10 μM of compound 19. CDCA (1) was used as a positive control at 10 μM. (D) Real-time PCR analysis of mRNA expression of GPBAR1 target gene Pro-glucagon in GLUTAg cells stimulated with 10 μM of compounds 7 and 19, and TLCA (2) used as a positive control at 10 μM. Values are normalized to GAPDH and are expressed relative to those of not treated cells (NT) which are arbitrarily settled to 1. The relative mRNA expression is expressed as 2(-ΔΔCt). Anti-GST-coated acceptor beads were used to capture the GST-fusion FXR-LBD whereas the biotinylated-SRC-1 peptide was captured by the streptavidin donor beads. Upon illumination at 680 nm, chemical energy is transferred from donor to acceptor beads across the complex streptavidin-Donor/Src-1-Biotin/[…]-LBD/Anti-GST-Acceptor and a signal is produced. The assay was performed in white, low-volume, 384-well Optiplates (PerkinElmer) using a final volume of 25 μL containing final concentrations of 10 nM of purified GST-tagged FXR-LBD protein, 30 nM biotinylated Src-1 peptide, 20 μg/mL anti-GST acceptor beads acceptor beads and 10 μg/mL of streptavidin donor bead (PerkinElmer). The assay buffer contained 50 mM Tris (pH 7.4), 50 mM KCl, 0.1% BSA, and 1 mM DTT. The stimulation times with 1 μL of tested compound (dissolved in 50% DMSO/H2O) were fixed to 30 min at room temperature. The concentration of DMSO in each well was maintained at a final concentration of […]. After the addition of the detection mix (acceptor and donor beads) the plates were incubated in the dark for 4 h at room temperature and then were read in Envision microplate analyzer (PerkinElmer).

For data set [2], the system named is GPBAR1 target gene Pro-glucagon in GLUTAg cells. Description: Real-time PCR of GPBAR1 target gene Pro-glucagon in GLUTAg cells. Type of data set: cell-based, mouse. Conditions: 10 μM, relative to not treated cells. On the procedure:
(§1) Figure 10 (A) Coactivator recruitment assay measuring a direct interaction of FXR with SRC-1; ligands at 2 μM. Results are expressed as percentage of the effect of 3 arbitrarily settled as 100%. NT is referred to the experiment in absence of ligand. […] (B,C) Real-time PCR analysis of mRNA expression on FXR target genes BSEP (B), and OSTα (C) in HepG2 cells primed with 10 μM of compound 19. CDCA (1) was used as a positive control at 10 μM. (D) Real-time PCR analysis of mRNA expression of GPBAR1 target gene Pro-glucagon in GLUTAg cells stimulated with 10 μM of compounds 7 and 19, and TLCA (2) used as a positive control at 10 μM. Values are normalized to GAPDH and are expressed relative to those of not treated cells (NT) which are arbitrarily settled to 1. The relative mRNA expression is expressed as 2(−ΔΔCt).
(§2) Total RNA was isolated from HepG2 or GLUTAg cells using the TRIzol reagent according to the manufacturer’s specifications (Invitrogen). One microgram of purified RNA was treated with DNase-I and reverse transcribed with Superscript II (Invitrogen). For Real Time PCR, 10 ng template was dissolved in 25 μL containing 200 nmol/L of each primer and 12.5 μL of 2 × SYBR FAST Universal ready mix (Invitrogen). […] The relative mRNA expression was calculated and expressed as 2-(ΔΔCt). […]
In general terms: Quantitative PCR measures a nucleic acid by following its amplification.

Data set [3] concerns the target T3, FXR (Homo sapiens, UniProt Q96RI1).
T3 sequence (Q96RI1 1-486): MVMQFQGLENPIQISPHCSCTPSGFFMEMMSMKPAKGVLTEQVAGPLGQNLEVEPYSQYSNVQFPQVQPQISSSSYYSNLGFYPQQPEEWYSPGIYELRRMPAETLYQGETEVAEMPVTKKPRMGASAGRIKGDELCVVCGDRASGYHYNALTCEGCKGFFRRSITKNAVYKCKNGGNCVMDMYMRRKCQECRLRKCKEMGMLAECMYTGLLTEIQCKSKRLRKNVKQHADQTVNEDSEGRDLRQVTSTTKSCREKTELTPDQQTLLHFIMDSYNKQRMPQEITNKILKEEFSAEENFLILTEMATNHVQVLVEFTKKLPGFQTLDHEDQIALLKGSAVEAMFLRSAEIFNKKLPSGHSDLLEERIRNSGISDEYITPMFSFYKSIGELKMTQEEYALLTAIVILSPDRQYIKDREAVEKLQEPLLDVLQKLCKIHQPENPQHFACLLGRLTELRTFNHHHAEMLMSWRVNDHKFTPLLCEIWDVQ
T3 sequence (P19793 1-462 partner): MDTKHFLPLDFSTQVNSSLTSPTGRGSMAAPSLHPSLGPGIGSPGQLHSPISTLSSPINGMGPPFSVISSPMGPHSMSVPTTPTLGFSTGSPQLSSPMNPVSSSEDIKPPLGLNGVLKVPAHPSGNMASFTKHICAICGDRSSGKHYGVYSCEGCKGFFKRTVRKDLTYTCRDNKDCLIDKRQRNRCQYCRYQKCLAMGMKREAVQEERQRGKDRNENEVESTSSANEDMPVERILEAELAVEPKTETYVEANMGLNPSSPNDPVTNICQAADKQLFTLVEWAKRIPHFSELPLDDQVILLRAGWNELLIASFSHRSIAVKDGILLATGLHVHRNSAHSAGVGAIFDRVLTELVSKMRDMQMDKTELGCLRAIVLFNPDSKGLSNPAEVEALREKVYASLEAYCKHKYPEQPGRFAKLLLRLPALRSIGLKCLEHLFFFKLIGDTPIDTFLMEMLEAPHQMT
Description: FXR transactivation luciferase reporter assay in transfected HepG2 cells. Conditions: HepG2 cells transfected with FXR; for EC50: EC50 FXR transactivation, 100 nM to 25 μM, mean ± standard error.
Description: (A) HepG2 cells were transfected with pSG5-FXR, pSG5-RXR, pCMV-βgal, and p(hsp27)TKLUC vectors. […] CDCA (1, 10 μM) and 6-ECDCA (3, 1 μM) were used as a positive control. […] Cells were stimulated with 7–19 (10 μM). […] In both panels, results are expressed as mean ± standard error. *p < 0.05 versus not treated cells (NT).
HepG2 cells were transfected with FXR as described above and used in a luciferase reporter assay. […] Results are expressed as mean ± standard error.
For FXR and GP BAR1 mediated transactivations, HepG2 cells and HEK293T cells were transfected as described previously[25]. […] After treatments, 20 μL of cellular lysates were read using Dual Luciferase Reporter Assay System (Promega Italia s.r.l., Milan, Italy) according manufacturer specifications using the Glomax 20/20 luminometer (Promega Italia s.r.l., Milan, Italy). […] At 18 h post stimulations, cellular lysates were assayed for luciferase and Renilla activities using the Dual-Luciferase Reporter assay system (E1980, Promega). Luminescence was measured using Glomax 20/20 luminometer (Promega). Luciferase activities were normalized with Renilla activities.

Data set [4] deals with animal models of non-obstructive cholestasis. Also noted: method as in PMID 26177448. Conditions: cited from earlier work.
A further data set has as its system PBC patients. Also noted: method as in PMID 25500425. Conditions: cited from earlier work.
A further data set has as its system GPBAR1. Also on record: method as in PMID 25247751. The note with it: cited from earlier work.
Data set [5] deals with T3, FXR. Also noted: method as in PMID 25247751. Conditions: any concentration tested; cited from earlier work.
The test system of data set [6] is rodent models of portal hypertension. Also on record: method as in PMID 26539823. Conditions: cited from earlier work.
In data set [7] the test system is FXR target genes BSEP and OSTα in HepG2 cells. Description: Real-time PCR of FXR target genes BSEP and OSTα in HepG2 cells. Type of data set: cell-based, human. The note with it: 10 μM, relative to not treated cells. On the procedure:
as §1, §2

“And” between values parts separate entries of the source, which are not always exact repeats. Equal values may be shown once.

For orientation: EC50 means the concentration at which the effect is half-maximal. With `CCC1C(O)C2C3CCC(C(C)CCO)C3(C)CCC2C2(C)CCC(O)CC12` (stereo not drawn) [compound 7], the “GPBAR1 potency compared with TLCA (2)” value at human GPBAR1 (HEK-293T cells transfected with GPBAR1, 10 μM) is listed as “potency similar to that of TLCA”. At human GPBAR1 (HEK-293T cells transfected with GPBAR1, compounds at 10 μM), the “GPBAR1 transactivation (cAMP-luciferase reporter gene)” value is reported as “inducers of cAMP-luciferase reporter gene”. The EC50 at human GPBAR1 is 0.91 µM. Besides, in [1], the “Recruitment of SRC-1 co-activator to FXR” value was “completely unable to recruit SRC-1”. Also, the Pro-glucagon gene expression result in data set [2] is listed as “increased pro-glucagon gene expression”.

Take `C/C=C1/[C@H](O)C2C3CC[C@H]([C@H](C)CCO)[C@@]3(C)CCC2[C@@]2(C)CC[C@@H](O)C[C@@H]12` (stereo partly drawn) [compound 10]: in [1], the “Recruitment of SRC-1 co-activator to FXR” value is “completely unable to recruit SRC-1”.

For the compound `CCC1C(O)C2C3CCC(C(C)CC(=O)O)C3(C)CCC2C2(C)CCCCC12` (stereo not drawn) [compound 13], the EC50 was 4.3 µM at human GPBAR1; 2.3 µM and 2.32 µM on FXR [3].

Regarding `CC[C@H]1[C@@H](O)[C@@H]2[C@H](CC[C@]3(C)[C@@H]([C@H](C)CCO)CC[C@@H]23)[C@@]2(C)CC[C@@H](O)C[C@@H]12` [compound 5], the “Liver damage and itching” value in [4] is given as “attenuates liver damage in animal models of non-obstructive cholestasis without inducing itching”.

In the case of `CC[C@H]1[C@@H](O)[C@@H]2[C@H](CC[C@]3(C)[C@@H]([C@H](C)CCC(=O)O)CC[C@@H]23)[C@@]2(C)CC[C@@H](O)C[C@@H]12` [6-ECDCA/OCA, 6-ECDCA], the “Patients who experienced the symptoms (pruritus)” value in the data set on PBC patients is recorded as “approx. 80%”. Moreover, in the data set on PBC patients (one trial), the “PBC patients who halted the treatment due to the severity of itching” value was “up to 40%”.

Consider `CC[C@@H]1[C@H](O)[C@@H]2[C@H](CC[C@]3(C)[C@@H]([C@H](C)CCCO)CC[C@@H]23)[C@@]2(C)CC[C@@H](O)C[C@@H]12` [compound 6, EUDCOH], for which the EC50 with GPBAR1 was 1.03 µM. In addition, the FXR transactivation result on FXR [5] is reported as “failing in transactivating FXR at any concentration tested”. In addition, the Portal pressure entry in [6] is on record as “exerts portal pressure-lowering effects”.

On to `CCC1C(O)C2C3CCC(C(C)CCCCCOS(=O)(=O)O)C3(C)CCC2C2(C)CCC(O)CC12` (stereo not drawn) [compound 19], for which the EC50 on human GPBAR1 amounted to 0.95 µM. Also, in data set [1], the “Recruitment of SRC-1 co-activator to FXR” value was “at least comparable, if not better, to that measured for 3”. For the same compound, in data set [7], the “BSEP mRNA upregulation” value is on record as 2 fold and the “OSTα mRNA expression” value is “robust induction of OSTα mRNA”. Also, the Pro-glucagon gene expression entry in data set [2] is listed as “increased pro-glucagon gene expression”. This compound showed an EC50 on FXR [3] of 1.7 µM. Further, on FXR [3] (compounds at 10 μM), the “FXR transactivation (luciferase reporter)” value was “the most potent FXR agonist generated in this study”.

Take `CC[C@@H]1[C@@H](O)C2C3CC[C@H]([C@H](C)CCO)[C@@]3(C)CCC2[C@@]2(C)CC[C@@H](O)C[C@@H]12` (stereo partly drawn) [compound 9]: the “Recruitment of SRC-1 co-activator to FXR” value in data set [1] is on record as “completely unable to recruit SRC-1”.

`CCC1C(O)C2C3CCC(C(C)CCO)C3(C)CCC2C2(C)CCC(O)CC12` (stereo not drawn) [compound 14]: the EC50 is 1 µM and 1.02 µM on human GPBAR1; 5.3 µM on FXR [3].
